Laboratory results as given in publication PMC7822874, “Chemoprotective antimalarials identified through quantitative high-throughput screening of Plasmodium blood and liver stage parasites” (Scientific Reports, 2021).
Like-named read-outs stand apart in the source and are kept apart here.

Assays:
in vitro = settings: human
[1] = system: Plasmodium falciparum Dd2 asexual blood stage parasites; experiment: microbe, parasite or virus in culture; design: species or system Plasmodium falciparum Dd2 in human erythrocytes; single determination (one 11-point concentration-response curve); settings: Plasmodium falciparum, DD2, Erythrocyte, 72 h; read-out: AC50
[2] = system: P. berghei-ANKA-GFP-LucCON liver stage parasites in HepG2-A16-CD81EGFP cells; experiment: P. berghei liver stage Pb-Luc assay, Method 1 (UCSD, 1536-well); format: cell-based, Plasmodium berghei; settings: for activity at 1 µM / activity at 3 µM: 48 h, average of 2 wells on a 1536 well plate; for activity at 1 µM: 1 uM (compounds provided at 10 mM); for activity at 3 µM: 3 uM (compounds provided at 10 mM); for Max Resp (signal direction of the dose response): Decrease = decreasing P. berghei viability with dose, Increase = increasing signal, Inactive = no dose response
[3] = HepG2-A16-CD81EGFP cells, uninfected
[4] = Plasmodium berghei, column 11, read-out: Pb-Luc (P. berghei liver stage), % of control, lower concentration, first repeat
[5] = Plasmodium berghei, column 12, read-out: Pb-Luc (P. berghei liver stage), % of control, lower concentration, second repeat
[6] = Plasmodium berghei, column 8, read-out: Pb-Luc (P. berghei liver stage), % of control, higher concentration, first repeat
[7] = Plasmodium berghei, column 9, read-out: Pb-Luc (P. berghei liver stage), % of control, higher concentration, second repeat
[8] = Plasmodium berghei, Method 1, Hill fit, 50% of maximum activity response, read-out: AC50
[9] = Plasmodium berghei, Method 1, log10 of molar AC50 from Hill fit, read-out: Log AC50 (converted)

SMILES	viability at 48 h, 1 µM (in vitro; [3]) [%]	viability at 48 h, 3 µM (in vitro; [3]) [%]	AC50 [1] [nM]	activity at 1 µM [2, 4] [%]	activity at 1 µM [2, 5] [%]	activity at 3 µM [2, 6] [%]	activity at 3 µM [2, 7] [%]	also measured
CCN1CCN(Cc2ccc(NC(=O)c3cc(NC(=O)c4cnn(-c5ccccc5)c4N)cc(OC)c3)cc2C(F)(F)F)CC1 [MLS000911569-01]	98	106	2110	116	92	116	103	–
Cc1ccc(/C=N/Nc2cc(C)nc(NCc3ccccc3)n2)cc1 [MLS000769291-01]	98	95	5310	97	106	138	126	–
COc1ccc(-c2c(C)nn3c(N)c(C#N)cnc23)cc1OC [MLS000718813-01]	–	–	1680	–	–	–	–	viability at 66 h (in vitro; [3]): 108%; Max Resp (signal direction of the dose response) ([2]; Method 1): Decrease; AC50 ([2]; Method 1, Hill fit, 50% of maximum activity response, read-out: AC50): 1410 nM; Log AC50 (M) ([2]; Method 1, log10 of molar AC50 from Hill fit): -5.850 M; AC50 [2, 8]: 1260 nM; AC50 [2, 9]: 1260 nM
Nc1cc[n+](CC(=O)c2ccc3c(c2)OCCO3)cc1 [MLS000391090-01]	97.8	–	13300	–	–	–	–	viability at 48 h (in vitro; [3]): 97.8%; Max Resp (signal direction of the dose response) ([2]; Method 1): Inactive
COc1ccc(NC2=NC3(CCCCC3)N=C(N)N2)cc1 [MLS000090248-01]	113	97	–	133	110	100	80	–
CC1CCCCN1S(=O)(=O)c1ccc(C(=O)Nc2ccccc2-c2nc3ccccc3[nH]2)cc1 (centres unmarked) [MLS000697052-01]	–	–	7500	–	–	–	–	viability at 66 h (in vitro; [3]): 104%; AC50 [2, 8]: 355 nM; AC50 [2, 9]: 355 nM
CCNc1nc(OC)nc(Oc2ccc(=O)n(-c3ccccc3)n2)n1 [MLS000034902-01]	112	101	5960	118	109	117	126	–
COc1cc2nc(Nc3ccc(C)c(Cl)c3)nc(N)c2cc1OC [MLS001199666-01]	109	100	2110	99	121	97	111	–
CCOc1ccc(NC(=O)c2cc3ccccc3cc2O)cc1 [MLS000736677-01]	–	–	5310	–	–	–	–	viability at 48 h (in vitro): 100%; viability at 48 h, 1 µM (in vitro): 100%; Max Resp (signal direction of the dose response) ([2]; Method 1): Decrease; AC50 [2, 8]: 501 nM; AC50 [2, 9]: 501 nM
CC(C)(C)CC(C)(C)c1ccc(O)c(CN2CCN(CCC#N)CC2)c1 [MLS000026875-01]	112	97	841	129	117	119	112	–
Cc1cc(NC2C3CC4CC(C3)CC2C4)n2nnnc2n1 (centres unmarked) [MLS000033680-01]	99	108	–	124	128	108	131	–
Cc1ccc(/C=N/NC(=O)c2cc3ccccc3cc2O)o1 [MLS001219838-01]	97.9	–	5310	–	–	–	–	viability at 48 h (in vitro; [3]): 97.9%; Max Resp (signal direction of the dose response) ([2]; Method 1): Decrease; AC50 [2, 8]: 1410 nM; AC50 [2, 9]: 1410 nM
COc1cc(O)c(C(CCN2CCCCC2)c2ccc3c(c2)OCO3)c(OC)c1 (centres unmarked) [MLS000879495-01]	113	94	1330	100	116	99	98	–
COc1ccc(Cc2nnc(NC(=O)c3ccc(OC)cc3OC)s2)cc1 [MLS001211969-01]	100	104	–	125	130	128	128	–
COc1cccc(CNCC(O)(c2ccc(Cl)cc2)c2ccc(Cl)cc2)c1 [MLS000325699-01]	106	101	–	124	99	99	98	–
COc1ccccc1NC(=O)CN1CCN(C(=O)c2ccco2)CC1 [MLS000122729-01]	101	101	–	130	101	50	80	–
C/C(Cl)=C/Cc1c(C)nc2c(ccc3ccccc32)c1O [MLS001211902-01]	86	92	841	–	–	–	–	–
C=C(C)CSc1nc2sc3c(c2c(=O)n1C1CCCCC1)CCN(C)C3 [MLS000779440-01]	98	91	2370	–	–	–	–	–
c1cncc(-c2nnc(-c3cccnc3)nn2)c1 [MLS000075752-01]	98	100	–	110	109	109	117	–
Nc1nonc1-n1nnc(C(=O)N/N=C/c2cccs2)c1-c1ccc2c(c1)OCO2 [MLS001142649-01]	92	91	1680	–	–	–	–	–
COc1ccc2c(c1)C1(Nc3ccccc3-c3nc4ccccc4n31)C(=O)N2 (centres unmarked) [MLS000080605-01]	99	104	596	–	–	–	–	–
CCc1nc(Nc2ccc3nccnc3c2)c2oc3ccccc3c2n1 [MLS000041713-01]	104	95	2370	–	–	–	–	–
Cc1c(C#N)c2ccccc2n1CCOc1ccccc1F [MLS000113080-01]	100	97	1680	–	–	–	–	–
COc1ccc(N2/C(=C/C(C)=O)NC(=O)c3c(C)cc(C)nc32)cc1 [MLS000088720-01]	–	–	3350	–	–	–	–	viability at 66 h (in vitro; [3]): 103%
CCC(=O)N1CCc2cc(Br)cc(S(=O)(=O)N3CCCC(C(=O)NC(C)(C)C)C3)c21 (centres unmarked) [MLS000937025-01]	98.3	–	3350	–	–	–	–	viability at 48 h (in vitro; [3]): 98.3%
CCCCN(C)CCNC(=O)c1cc2c(-c3cccc(OC)c3)nn(C)c2s1 [MLS001199565-01]	86	85	6680	–	–	–	–	–
CCCCn1c2c(c(=N)c3c1CCC3)CCC2 [MLS000080126-01]	111	80	8410	–	–	–	–	–
NNC(=O)CN1C(c2cccc(Cl)c2)=Nc2ccc(Br)cc2C1c1ccccc1 (centres unmarked) [MLS000558682-01]	90	89	2660	–	–	–	–	–
COC(=O)[C@H]1[C@H]2C[C@@H]3c4[nH]c5cc(OC)ccc5c4CCN3C[C@H]2C[C@@H](OC(=O)/C=C/c2cc(OC)c(OC)c(OC)c2)[C@@H]1OC [MLS002153878-01]	–	–	5310	–	–	–	–	viability at 48 h (in vitro): 106%; viability at 48 h, 1 µM (in vitro): 106%
